T1: Tnk1 (thirty-eight negative kinase 1) (Homo sapiens, UniProt Q13470)
T1 construct: Tnk1^ΔCT, residues 1-510 (SAM, kinase and SH3 domains), N-terminal 6x-His and GST tags, Sf9
T1 sequence (Q13470 1-510 isoform Q13470-2): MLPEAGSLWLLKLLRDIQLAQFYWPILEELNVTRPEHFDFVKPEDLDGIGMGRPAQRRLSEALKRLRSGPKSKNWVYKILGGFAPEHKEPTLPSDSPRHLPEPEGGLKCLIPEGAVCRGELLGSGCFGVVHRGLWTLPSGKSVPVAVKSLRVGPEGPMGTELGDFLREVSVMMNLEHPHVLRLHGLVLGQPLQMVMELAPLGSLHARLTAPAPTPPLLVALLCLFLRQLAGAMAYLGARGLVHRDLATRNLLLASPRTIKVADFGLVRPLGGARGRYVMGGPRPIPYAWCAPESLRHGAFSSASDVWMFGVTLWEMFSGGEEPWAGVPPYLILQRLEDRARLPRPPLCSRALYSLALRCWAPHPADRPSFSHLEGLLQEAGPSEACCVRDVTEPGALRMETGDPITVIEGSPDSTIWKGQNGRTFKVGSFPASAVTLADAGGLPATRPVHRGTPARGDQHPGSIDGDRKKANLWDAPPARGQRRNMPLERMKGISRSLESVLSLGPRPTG

B1: Tnk1 (thirty-eight negative kinase 1) (Homo sapiens) (protein)
chain: T1 sequence (Q13470 1-510 isoform Q13470-2)
notes: Tnk1^ΔCT, residues 1-510 (SAM, kinase and SH3 domains), N-terminal 6x-His and GST tags, Sf9

Experiments:
[1] = molecular target: T1, Tnk1 (thirty-eight negative kinase 1); test: single-concentration ([…]) inhibition, […]-ATP phosphocellulose kinase assay, WASP peptide; assay type: biochemical; conditions: read-out: % inhibition at 10 μM
[2] = molecular target: T1, Tnk1 (thirty-eight negative kinase 1); test: […]-ATP phosphocellulose kinase assay, WASP peptide, dose-response; assay type: biochemical
[3] = substrate: Nc1ncnc2c1ncn2[C@@H]1O[C@H](COP(=O)(O)OP(=O)(O)OP(=O)(O)O)[C@@H](O)[C@H]1O; test: purified protein; assay type: biochemical, Homo sapiens; conditions: MgCl2

Row | Molecule | inhibition at 10 µM [1] | also measured
1 | COc1cc2ncnc(Nc3ccc(F)c(Cl)c3)c2cc1OCCCN1CCOCC1 [gefitinib] | 30 to 40% | –
2 | C#Cc1cccc(Nc2ncnc3cc(OCCOC)c(OCCOC)cc23)c1 [erlotinib] | 30 to 40% | –
3 | CN1CCN(c2ccc(Nc3ncc(Cl)c(NC[C@H]4CCCO4)n3)cc2)CC1 [(R)-9b] | – | IC50 [2]: 470 nM
4 | B1 | – | Km [3]: 70 µM
